The values below come from US11584759B2, “Macrocyclic kinase inhibitor” (HITGEN INC., priority 2018, dated 2023).

Where only a bound is given, the exact number is not on record here.

The test system of experiment [1] is Ba/F3 LMNA-NTRK1-G595R cell line. The experiment is described as follows: Cell experiment, CellTiter-Glo viability, Ba/F3 LMNA-NTRK1-G595R. The format is cell-based. The following applies: Mus musculus, BaF3, 72 hours, CTG. As to the method:
(§1) Cell culture and seeding: (1) cells in logarithmic growth phase were harvested and counted using a […]. The cell viability was detected by trypan blue exclusion method to ensure that the cell viability was above 90%. (2) The cell concentration was adjusted; and 90 μl of cell suspension was added to the 96-well plate.
(§2) 10 μl of drug solution was added to each well in a 96-well plate inoculated with cells, triplicate per concentration.
(§3) End-point for reading: (1) The CTG reagent was thawed and the cell plate was equilibrated to room temperature for 30 minutes. (2) Equal volume of CTG solution was added to each well. (3) The plated was shaken on an orbital shaker for 5 minutes to lyse the cells. (4) The cell plate was placed at room temperature for 20 minutes to stabilize the cold light signal. (5) The cold light value was read.
(§4) GraphPad Prism 7.0 software was used to analyze the data, and nonlinear S-curve regression was fitted the data to get the dose-effect curve, and the IC50 value was calculated therefrom. Cell survival (%)=(Lumtest drug−Lumculture control)/(Lumcell control−Lumculture control)×100%.
In general terms: ATP-based viability assays read luminescence as a measure of living cells.

The subject of experiment [2] is Ba/F3 ETV6-NTRK3-G623R cell line. The experiment in a line: Cell experiment, CellTiter-Glo viability, Ba/F3 ETV6-NTRK3-G623R. Type of experiment: cell-based. To be noted: Mus musculus, BaF3, 72 hours, CTG. As to the method: as §1, §2, §3, §4
Experiment [3] relates to BA/F3 ETV6-NTRK3 G623R cells. The experiment is described as follows: Drug Efficacy Test 3: tumor growth in SCID mice. Type of experiment: in vivo, mouse. The following applies: subcutaneous BA/F3 ETV6-NTRK3 G623R tumors, start at about 300 mm^3, FIG. 3. As to the method: BA/F3 ETV6-NTRK3 G623R cells are polyclonal stable transfected cell lines constructed based on TRKA mutation by our laboratory. SCID mice, female, 6-8 weeks old, weighing 18-22 grams, were purchased from Chengdu Dashuo Experimental Animal Co., Ltd.
BA/F3 ETV6-NTRK3 G623R cells in logarithmic growth phase were collected, counted and adjusted to a suitable cell density. 0.1 mL cell suspension (2×10^6 cells) was inoculated subcutaneously into the right back of each mouse. When the average tumor volume reached about 300 mm^3, mice were randomly divided into groups (m=5) for administrating the compound of Example 1 in solvent PEG400:HPBCD (20%, W/V) (3:1).
(§5) At the end of the experiment, all surviving experimental animals were sacrificed.
(§6) Tumor volume was calculated using formula: V=0.5 (a×b^2), wherein a and b represent the long and short diameters of the tumor, respectively.
(§7) Graph Pad Prism 6.0 was used for graph analysis.

The target in the next experiment is T1, TRKA Protein (wild type) (Homo sapiens, UniProt P04629).
T1 construct: purchased abcam ab60887
T1 sequence (P04629 33-796): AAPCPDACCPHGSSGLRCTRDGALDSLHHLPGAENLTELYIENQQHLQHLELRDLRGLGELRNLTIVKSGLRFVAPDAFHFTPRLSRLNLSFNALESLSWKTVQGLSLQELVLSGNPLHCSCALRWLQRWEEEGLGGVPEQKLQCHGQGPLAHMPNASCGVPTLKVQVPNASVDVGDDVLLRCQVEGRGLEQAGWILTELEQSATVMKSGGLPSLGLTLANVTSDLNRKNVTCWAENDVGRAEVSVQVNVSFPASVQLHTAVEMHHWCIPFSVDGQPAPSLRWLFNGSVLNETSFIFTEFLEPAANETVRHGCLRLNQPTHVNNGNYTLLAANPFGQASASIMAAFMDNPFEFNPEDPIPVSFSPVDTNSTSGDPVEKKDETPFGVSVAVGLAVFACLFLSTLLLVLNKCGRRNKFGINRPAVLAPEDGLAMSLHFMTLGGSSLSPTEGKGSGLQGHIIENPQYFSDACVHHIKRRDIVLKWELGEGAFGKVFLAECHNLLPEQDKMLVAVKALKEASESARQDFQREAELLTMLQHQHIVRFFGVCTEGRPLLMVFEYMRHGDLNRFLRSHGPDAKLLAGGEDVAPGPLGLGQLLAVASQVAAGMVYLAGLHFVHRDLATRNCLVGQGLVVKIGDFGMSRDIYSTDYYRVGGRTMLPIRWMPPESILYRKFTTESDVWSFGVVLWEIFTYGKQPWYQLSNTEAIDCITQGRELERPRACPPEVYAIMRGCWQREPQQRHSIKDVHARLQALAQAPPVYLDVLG
The experiment in a line: Detection of TRK inhibitory activity (ADP-Glo kinase assay), TRKA wild type. Type of experiment: biochemical. The following applies: 35 min at room temperature. As to the method: (§8) An enzyme reaction buffer was prepared containing 25 mM MOPS, 5 mM MgCl2, 500 μM DTT and 0.005% Triton, and then adjusted to pH 7.5.
(§9) The test compound was diluted with DMSO to 200 times of the desired final concentration, and mixed evenly, then 3 μL of the solution was pipetted to 117 μL of enzyme reaction buffer and mixed thoroughly. Then, 3 μL of the enzyme reaction buffer containing the test compound was pipetted to a 96-well PCR plate. The positive and negative control wells were filled with 3 μL of enzyme reaction buffer containing 2.5% DMSO, respectively. TRK protein was diluted to 0.4 ng/μL with the enzyme reaction buffer, and 6 μL of diluted TRK protein was added to each well except for the well for the blank control group, in which 6 μL of the enzyme reaction buffer was added. The reaction plate was centrifuged at 1000 rpm/min for 1 minute, and the compound and TRK were pre-incubated at room temperature for 10 minutes. A mixed solution with ATP at a concentration of 160 μM and substrate at a concentration of 1 μM was prepared with the enzyme reaction buffer, and 6 μL of the mixed solution was added to each reaction well. The reaction plate was centrifuged at 1000 rpm/min for 1 minute, and incubated at room temperature for 35 minutes. After the enzyme reaction was completed, 15 μL of ADP-Glo was added to each reaction well. The reaction plate was centrifuged at 1000 rpm/min for 1 minute, and incubated at room temperature for 40 minutes. Then 15 μL of the reaction solution from each well was transferred to a 384-well plate, and then 15 μL of detection substrate was added to each corresponding well of the 384-well plate. The 384-well plate was centrifuged at 1000 rpm/min for 1 minute, and incubated at room temperature for 40 minutes. After the reaction, a microplate reader was used to read the cold luminescence signal value in the 384-well plate.
(§10) The residual viability percentage of each concentration was calculated with the following formula: Residual viability (%)=100*(Lumincompond−Luminblank control)/(Luminpostive control−Luminblank control)
(§11) Then, GraphPad 5.0 was fitted to the effect curve to calculate the IC50 value.

Experiment [4] relates to Ba/F3 LMNA-NTRK1-F589L cell line. The experiment is described as follows: Cell experiment, CellTiter-Glo viability, Ba/F3 LMNA-NTRK1-F589L. Type of experiment: cell-based. The following applies: Mus musculus, BaF3, 72 hours, CTG. As to the method: as §1, §2, §3, §4
Another experiment concerns NIH-3T3ΔTRKA G595R cells. The experiment in a line: Drug Efficacy Test 1: tumor growth in Balb/c Nude mice. Type of experiment: in vivo, mouse. To be noted: subcutaneous NIH-3T3ΔTRKA G595R tumors, start at about 100 mm^3, FIG. 1. As to the method:
NIH-3T3 ATRKA G595R cells are polyclonal stable transfected cell lines constructed based on TRKA mutation by our laboratory. Balb/c Nude mice, female, 6-8 weeks old, weighing 18-22 grams, were purchased from Chengdu Dashuo Experimental Animal Co., Ltd.
NIH-3T3 ATRKA G595R cells in the logarithmic growth phase were collected, counted and adjusted to a suitable cell density. 0.1 mL cell suspension (2×10^6 cells) was inoculated subcutaneously into the right back of each mouse. When the average tumor volume reached about 100 mm^3, mice were randomly divided into groups (m=6) for administrating the compound of Example 1 in solvent PEG400:HPBCD (20%, W/V) (3:1).
as §5, §6, §7

A further experiment deals with TRKA (G667C) (Homo sapiens, UniProt P04629, G667C). The experiment in a line: Detection of TRK inhibitory activity (ADP-Glo kinase assay), TRKA (G667C). The format is biochemical. As to the method:
as §8, §9, §10, §11

In experiment [5] the test system is BA/F3 ETV6-NTRK3 G623R cells. The experiment is described as follows: Drug Efficacy Test 2: tumor growth in Balb/c Nude mice. Type of experiment: in vivo, mouse. The following applies: subcutaneous BA/F3 ETV6-NTRK3 G623R tumors, start at about 100 mm^3, FIG. 2. As to the method:
BA/F3 ETV6-NTRK3 G623R cells are polyclonal stable transfected cell lines constructed based on TRKA mutation by our laboratory. Balb/c Nude mice, female, 6-8 weeks old, weighing 18-22 grams, were purchased from Chengdu Dashuo Experimental Animal Co., Ltd.
BA/F3 ETV6-NTRK3 G623R cells in logarithmic growth phase were collected, counted and adjusted to a suitable cell density. 0.1 mL cell suspension (2×10^6 cells) was inoculated subcutaneously into the right back of each mouse. When the average tumor volume reached about 100 mm^3, mice were randomly divided into groups (m=5) for administrating the compound of Example 1 in solvent PEG400:HPBCD (20%, W/V) (3:1).
as §5, §6
GraphPadPrism6.0 was used for graph analysis.

Chain of TRKA (G667C) (P04629 33-796 G667C): as the sequence (P04629 33-796) above, with G635C counted along it

Consider `C[C@@H]1CCOc2ccc(F)cc2[C@H]2CCCN2c2ccc3ncc(C#N)c(c3n2)N1` [Example 1, (6R,16R)-9-fluoro-16-methyl-3-oxa-2,17,21,25-tetraazapentacyclo [16.6.2.0^2,^6.0^7,^12.0^22,^26]hexacosane-1(25),7,9,11,18(26),19,21,23-octane-19-nitrile], for which the IC50 in experiment [1] was 2.5 nM; in experiment [2], 17.3 nM; against TRKA Protein (wild type) it was less than 50 nM; in experiment [4], 3.8 nM; on TRKA (G667C), less than 50 nM. Besides, the IC90 was 83.2 nM in experiment [1], 42.3 nM in experiment [2] and 17.1 nM in experiment [4]. In addition, the “Inhibition of tumor growth (tumor volume)” value (in experiment [3]; with NIH-3T3ΔTRKA G595R cells; in experiment [5]) was “inhibits the growth” throughout.

Usually IC50 stands for the concentration needed to halve the response being measured. Low readings indicate higher potency, high ones lower potency. One may read the IC90 as the concentration needed for an effect of 90%. Read a high IC90 as weaker potency.
